For this experiment, the system named is E. coli ATCC25922. The experiment is described as follows: Urinary tract infection model in Sprague-Dawley rats, transurethral treatment (Example 12). It counts as in vivo. To be noted: 60 min. As to the method:
Female Sprague-Dawley rats (n=6/group) are intraurethrally infected with the pre determined inoculum size of E. coli. At the specified time following infection with (depending on the in vivo growth curve), the animals are anaesthetized (ketamine/xylazine) and treated by transurethral administration with neutral saline (group 1), saline pH 3.5 adjusted with phosphoric acid (group 2), test compound Nu-8 pH 3.5 at 103 and 207 mg/kg (groups 3 and 4, respectively). When adjusting pH, the volume of phosphoric acid added are monitored and the final concentration of the pH adjusted dose solution are subsequently determined. The goal is to have the final concentration after pH adjustment within 10% of the desired dose so the final concentration after pH adjustment are reported. Volume of administration will be 300 μL. TABLE 10 (Animal Challenge and Treatment Schedule) summarizes the study groups.
Two hours prior to each infection animals are water deprived. Each animal is infected twice with 24 hrs difference by transurethral administration of 300 μL of bacterial suspension under light ketamine and xylazine anaesthesia. Prior to infection, urine is evacuated by digital pressure, cannula is gently inserted into the bladder via urethra and 300 μL of bacterial suspension is inserted into the bladder. […]

Regarding `CCCCOP(=O)(O)OC[C@H]1O[C@@H](n2ccc(N)nc2=O)C[C@@H]1OP(=O)(O)OCCCC` [Nu-8, sodium ((2R,3S,5R)-5-(4-amino-2-oxopyrimidin-1(2H)-yl)-3-((butoxyoxidophosphor-yl)oxy)tetrahydrofuran-2-yl)methyl butyl phosphate], the “mean CFU per mL of bladder tissue (tissue plus urine)” value is, setting by setting: (103 mg/kg pH 3.5 transurethral) 5.53 Log 10 CFUs/mL bladder tissue; (207 mg/kg pH 3.5 transurethral) 4.60 Log 10 CFUs/mL bladder tissue.

Source of the values: patent publication US12054509B2, “Antimicrobial compounds, compositions, and uses thereof” (Lakewood Amedex, Inc., priority 2017, dated 2024).
